In US9788541B2, “Antibacterial surfactant/microgel formulations, methods of making and methods of using the same” (The University of Toledo, priority 2012, dated 2017):

Test system: Pseudomonas aeruginosa PAO1
Experiment: Antibacterial activity test, viable cell counts by heterotrophic plate count
Type: cell-based
Settings: microgel-free surfactant solutions (10 mmol/kg SDS, 14.4 mmol/kg TX-100, 3.0 mmol/kg 40:60 SDS:TX100), 0-30 min; FIG. 5 Groups 6-8
Description: The effect of anionic and nonionic surfactants on the microgel antibacterial properties was probed using Pseudomonas aeruginosa (wild-type P. aeruginosa PAOI strain) as model Gram-negative bacteria. The bacteria were cultured in one-tenth strength LB broth (2.5 g/L, Difco Laboratory, Detroit, Mich.) at 37° C. until the late-exponential phase. Bacterial cells were then harvested by centrifugation at 2,000 g for 15 min (using an Eppendorf 5804R centrifuge; Hamburg, Germany), washed and resuspended in phosphate buffer (0.54 g Na2HPQ4 and 0.88 g KH2PO4 per liter, pH=6.98) as bacterial suspensions (0D600=0.25±0.02).
Each antimicrobial formulation sample was then tested in triplicate at room temperature (22±2° C.). The bacterial suspension was mixed with the surfactant/microgel formulations in a 1:1000 ratio (e.g., 15 μl:15 ml). After mixing, samples were taken at 5, 15, and 30 min to quantify the effect of surfactant/microgel formulations on the number of viable cells. The viable cells were enumerated at each time point using the heterotrophic plate count method with R2A agar plates (Difco Laboratories, Detroit, Mich.).
The antibacterial activity of the surfactant/microgel formulations was tested using Pseudomonas aeruginosa PAO1 as a model Gram-negative bacteria. […]

| Compound | effect on bacterial viability |
| --- | --- |
| CCCCCCCCCCCCOS(=O)(=O)[O-].[Na+] [SDS, sodium dodecyl sulfate] | no short-term effect on bacterial viability |
| t-octylphenoxypolyethoxyethanol [TX100] | no short-term effect on bacterial viability |
